Each structure is given as a SMILES string.

For this test, the target named is Recombinant human LSD1 (Homo sapiens, UniProt O60341). The test can be described thus: LSD1 inhibition assay (HTRF LSD1 Histone H3K4 mono-demethylation assay, me1->me0). The class given is biochemical. Particulars: 20 nM recombinant human LSD1, 95 nM H3K4(me1) biotinylated peptide, 15 min preincubation, 60 min at 25° C., read-out: LSD1 inhibition IC50 (nM range). In a few lines: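 HTRF demethylation (me1->me0) read-out: streptavidin-XL665 and anti-H3K4me0 cryptate added after reaction, ratio measured after 90 min dark. Reaction: 95 nM H3K4me1 biotin-peptide, 20 nM LSD1 (15-min compound pre-incubation), 60 min, 25 °C, buffer pH 8.5 plus FAD and DTT; 4-parameter logistic IC50.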
On the technique in general: TR-FRET usually uses a lanthanide donor and a delayed reading to cut background.
For the compound `Cc1cc(CNCC2CCCNC2)c(Cl)c(-c2ccc(C#N)c(F)c2)c1` (stereo not shown) [Example 348, 2'-chloro-3-fluoro-5'-methyl-3'-({[(piperidin-3-yl)methyl]amino}methyl)-[1,1'-biphenyl]-4-carbonitrile], the IC50 lay within 100 to 1000 nM.
The result for `N#Cc1ccc(-c2cccc(C[C@H]3CNCCO3)c2-c2ccno2)cc1F` (single isomer, unassigned) [Example 17] reads 10 to 25 nM.
As for `N#Cc1ccc(-c2cccc(CN3C[C@@H]4C[C@@H](N)[C@H]3C4)c2-c2cncs2)cc1F` [Example 237, 3'-{[(1R,4R,6R)-6-amino-2-azabicyclo[2.2.1]heptan-2-yl]methyl}-3-fluoro-2'-(1,3-thiazol-5-yl)-[1,1'-biphenyl]-4-carbonitrile], the IC50 is 10 to 25 nM.
In the case of `CN(C[C@H]1CCCOC1)c1ccc(CC2CNCCO2)cc1-c1ccc(C#N)c(F)c1` (stereo partly drawn) [Example 120, 3-fluoro-2′-[methyl({[(3R)-oxan-3-yl]methyl})amino]-5′-[(morpholin-2-yl)methyl]-[1,1′-biphenyl]-4-carbonitrile] it was 100 to 1000 nM; in that of `COc1ccc(C2CN(c3ccc(CC4CNCCO4)cc3-c3ccc(C#N)c(F)c3)C2)cn1` (stereo not shown) [Example 86, 3-fluoro-2′-[3-(6-methoxypyridin-3-yl)azetidin-1-yl]-5′-[(morpholin-2-yl)methyl]-[1,1′-biphenyl]-4-carbonitrile], 100 to 1000 nM.
In the case of `CC1(C)CNCC(Cc2ccc(N3CCC3)c(-c3ccc(C#N)c(F)c3)c2)O1` (stereo not shown) [Example 139, 2'-(azetidin-1-yl)-5'-[(6,6-dimethylmorpholin-2-yl)methyl]-3-fluoro-[1,1'-biphenyl]-4-carbonitrile] it was 100 to 1000 nM.
In the case of `CCCc1c(CN2[C@H]3CC[C@@H]2[C@H](N)C3)cccc1-c1ccc(C#N)c(F)c1` (single isomer, unassigned) [Example 212] it was 25 to 100 nM; in that of `N#Cc1ccc(-c2cc(CC3CNCCO3)ccc2N2CCCC3(CCOC3)C2)cc1F` (stereo not shown) [Example 118, 3-fluoro-5′-[(morpholin-2-yl)methyl]-2′-{2-oxa-7-azaspiro[4.5]decan-7-yl}-[1,1′-biphenyl]-4-carbonitrile], 100 to 1000 nM; in that of `N#Cc1ccc(-c2cc(F)cc(CC3CNCCO3)c2-c2cnco2)cc1F` (stereo not shown) [Example 49, 3,5′-difluoro-3′-[(morpholin-2-yl)methyl]-2′-(1,3-oxazol-5-yl)-[1,1′-biphenyl]-4-carbonitrile], 25 to 100 nM.
`N#Cc1ccc(-c2cccc(CN3CCC[C@H]4NCC[C@H]43)c2-c2cncs2)cc1F` (racemic) [Example 279, 3'-{[(3aR,7aR)-otcahydro-1H-pyrrolo[3,2-b]pyridin-4-yl]methyl}-3-fluoro-2'-(1,3-thiazol-5-yl)-[1,1'-biphenyl]-4-carbonitrile]: the IC50 lay in the range of 10 to 25 nM.
For `CC(C)c1c(CN2[C@@H]3CC[C@H]2[C@@H](N)C3)cccc1-c1ccc(C#N)c(F)c1` (racemic) [Example 220, 3'-{[(1S,2S,4R)-2-amino-7-azabicyclo[2.2.1]heptan-7-yl]methyl}-3-fluoro-2'-(propan-2-yl)-[1,1'-biphenyl]-4-carbonitrile], the IC50 fell in the range of 25 to 100 nM.
The result for `N#Cc1ccc(-c2cc(CC3CNCCO3)ccc2N2CC3(CCOCC3)C2)cc1F` (stereo not shown) [Example 62, 3-fluoro-5′-[(morpholin-2-yl)methyl]-2′-{7-oxa-2-azaspiro[3.5]nonan-2-yl}-[1,1′-biphenyl]-4-carbonitrile] reads 100 to 1000 nM.
For `Cc1cc(NCC2CNCCO2)c(Cl)c(-c2ccc(C#N)c(F)c2)c1` (stereo not shown) [Example 89, 2′-chloro-3-fluoro-5′-methyl-3′-{[(morpholin-2-yl)methyl]amino}-[1,1′-biphenyl]-4-carbonitrile], the IC50 is above 1000 nM.
The result for `N#Cc1ccc(-c2cccc(CN3[C@@H]4CC[C@H]3[C@@H](N)C4)c2N2CCCC2)cc1F` (racemic) [Example 270, 3'-{[(1S,2S,4R)-2-amino-7-azabicyclo[2.2.1]heptan-7-yl]methyl}-3-fluoro-2'-(pyrrolidin-1-yl)-[1,1'-biphenyl]-4-carbonitrile] reads 100 to 1000 nM; that for `N#Cc1ccc(-c2cccc(CC3CNCCO3)c2-c2ccns2)cc1F` (stereo not shown) [Example 36, 3-fluoro-3′-[(morpholin-2-yl)methyl]-2′-(1,2-thiazol-5-yl)-[1,1′-biphenyl]-4-carbonitrile], 10 to 25 nM; that for `CNC1CCN(c2cccc(-c3ccc(C#N)c(F)c3)c2-c2cncs2)CC1` [Example 116, 3-fluoro-3'-[4-(methylamino)piperidin-1-yl]-2'-(1,3-thiazol-5-yl)-[1,1'-biphenyl]-4-carbonitrile], 10 to 25 nM.
For the compound `N#Cc1ccc(-c2cccc(CN3C[C@H]4C[C@@H](N)C[C@@H]3C4)c2C2CC2)cc1F` (stereo in doubt) [Example 318, 3'-{[(1S,3R,5S)-3-amino-6-azabicyclo[3.2.1]octan-6-yl]methyl}-2'-cyclopropyl-3-fluoro-[1,1'-biphenyl]-4-carbonitrile], the half-maximal inhibitory concentration (IC50) was 25 to 100 nM.
The result for `CC(C)(C)N1CCN(c2ccc(CC3CNCCO3)cc2-c2ccc(C#N)c(F)c2)CC1` (stereo not shown) [Example 149, 2′-(4-tert-butylpiperazin-1-yl)-3-fluoro-5′-[(morpholin-2-yl)methyl]-[1,1′-biphenyl]-4-carbonitrile] reads 100 to 1000 nM; that for `C[C@@H]1[C@@H](N)CCCN1Cc1cccc(-c2ccc(C#N)c(F)c2)c1Cl` [Example 329, 3'-{[(2R,3S)-3-amino-2-methylpiperidin-1-yl]methyl}-2'-chloro-3-fluoro-[1,1'-biphenyl]-4-carbonitrile], above 1000 nM.
The result for `N#Cc1ccc(-c2ccc(F)c(CN3C[C@]4(N)CC[C@H]3C4)c2Cl)cc1F` [Example 208, 3'-{[(1S,4S)-4-amino-2-azabicyclo[2.2.1]heptan-2-yl]methyl}-2'-chloro-3,4'-difluoro-[1,1'-biphenyl]-4-carbonitrile] reads 25 to 100 nM; that for `CC(C)Oc1ccc(CN2[C@@H]3CC[C@H]2[C@@H](N)C3)cc1-c1ccc(C#N)c(F)c1` (racemic) [Example 250, 5'-{[(1S,2S,4R)-2-amino-7-azabicyclo[2.2.1]heptan-7-yl]methyl}-3-fluoro-2'-(propan-2-yloxy)-[1,1'-biphenyl]-4-carbonitrile], 10 to 25 nM.
Take `COCC1CN(c2ccc(CC3CNCCO3)cc2-c2ccc(C#N)c(F)c2)C1` (stereo not shown) [Example 55, 3-fluoro-2′-[3-(methoxymethyl)azetidin-1-yl]-5′-[(morpholin-2-yl)methyl]-[1,1′-biphenyl]-4-carbonitrile]: the half-inhibitory concentration (IC50) fell in the range of 100 to 1000 nM.

As usually defined, the IC50 is the concentration that inhibits the measured activity by half.

These data come from patent US20260209214A1, “LSD1 MODULATORS” (RECURSION PHARMACEUTICALS, INC., priority 2022, published 2026).
